The values below come from ChEMBL document CHEMBL1133061, “Synthesis of N-diisopropyl phosphoryl benzyltetrahydroisoquinoline, a new class of mitochondrial complexes I and III inhibitors” (Bioorg Med Chem Lett, 2000).

The assay has as its target Mitochondrial complex I; NADH oxidoreductase (Bos taurus, UniProt P25708+P52505). Put plainly: Inhibitory concentration against NADH oxidase. The format is protein-complex assay.

Chain of Mitochondrial complex I; NADH oxidoreductase (P25708 21-464 limits assumed, other chains not shown): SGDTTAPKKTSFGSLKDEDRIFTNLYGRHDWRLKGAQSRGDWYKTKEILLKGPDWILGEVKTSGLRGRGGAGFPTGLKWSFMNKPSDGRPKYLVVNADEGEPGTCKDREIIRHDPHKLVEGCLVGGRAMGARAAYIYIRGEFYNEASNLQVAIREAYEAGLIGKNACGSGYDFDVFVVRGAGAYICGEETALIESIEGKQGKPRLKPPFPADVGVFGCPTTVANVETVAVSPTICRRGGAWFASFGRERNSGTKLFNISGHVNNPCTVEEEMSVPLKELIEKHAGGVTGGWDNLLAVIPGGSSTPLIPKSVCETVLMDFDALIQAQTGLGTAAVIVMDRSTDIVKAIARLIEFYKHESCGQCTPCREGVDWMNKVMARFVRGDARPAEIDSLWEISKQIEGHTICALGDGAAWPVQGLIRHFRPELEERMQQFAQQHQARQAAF

The IC50 is the concentration that inhibits the measured activity by half. A lower IC50 goes with greater potency. `COc1cc2c(cc1OCc1ccccc1)CCN(C)C2Cc1ccccc1` (centres undefined): the half-maximal inhibitory concentration (IC50) was 2700 nM. In other words, the single-digit micromolar range.

With `COc1cc2c(cc1OCc1ccccc1)CCN(P(=O)(OC(C)C)OC(C)C)C2Cc1ccccc1` (centres undefined), the IC50 turned out to be 1690 nM.

In turn, `COc1cc2c(cc1OCc1ccccc1)CCNC2Cc1ccccc1` (centres undefined) showed a concentration for half-maximal inhibition (IC50) of 3880 nM.

As for `COc1cc2c(cc1OCc1ccccc1)CCN=C2Cc1ccccc1`, the concentration for half-maximal inhibition (IC50) came to 2910 nM.
